Experimental data: ChEMBL document CHEMBL5241118, “4-Aminopyrazolopyrimidine scaffold and its deformation in the design of tyrosine and serine/threonine kinase inhibitors in medicinal chemistry” (RSC Med Chem, 2022)
Several values for one entry are separate records, joined by “and”; a condition that tells them apart may be missing. Equal values may be shown once.

Experiments:
[1] = Inhibition of human recombinant 1R N-terminal His-tagged (919 to 1343 residues) expressed in baculovirus infected Sf21 measured after 20 mins by western blot analysis
[2] = biological target: Tyrosine-protein kinase Lck (Homo sapiens, UniProt P06239); assay: Binding affinity to LCK (unknown origin) assessed as dissociation constant
Sequence of Tyrosine-protein kinase Lck (P06239 whole entry): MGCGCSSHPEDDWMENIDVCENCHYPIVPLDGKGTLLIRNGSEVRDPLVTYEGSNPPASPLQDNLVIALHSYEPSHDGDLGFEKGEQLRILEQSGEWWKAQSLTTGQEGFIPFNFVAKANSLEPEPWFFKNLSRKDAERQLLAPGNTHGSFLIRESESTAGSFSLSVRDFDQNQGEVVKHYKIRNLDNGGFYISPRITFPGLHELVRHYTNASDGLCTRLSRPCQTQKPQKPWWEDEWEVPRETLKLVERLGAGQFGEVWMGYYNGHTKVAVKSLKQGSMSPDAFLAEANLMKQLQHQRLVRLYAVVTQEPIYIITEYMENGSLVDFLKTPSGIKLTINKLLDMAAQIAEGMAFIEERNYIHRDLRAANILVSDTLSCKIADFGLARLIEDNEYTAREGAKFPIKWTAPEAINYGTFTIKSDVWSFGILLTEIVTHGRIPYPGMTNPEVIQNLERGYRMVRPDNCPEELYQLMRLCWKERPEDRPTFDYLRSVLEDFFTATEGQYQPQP

[3] = biological target: Tyrosine-protein kinase Yes (Homo sapiens, UniProt P07947); assay: Binding affinity to YES (unknown origin) assessed as dissociation constant
Sequence of Tyrosine-protein kinase Yes (P07947 whole entry): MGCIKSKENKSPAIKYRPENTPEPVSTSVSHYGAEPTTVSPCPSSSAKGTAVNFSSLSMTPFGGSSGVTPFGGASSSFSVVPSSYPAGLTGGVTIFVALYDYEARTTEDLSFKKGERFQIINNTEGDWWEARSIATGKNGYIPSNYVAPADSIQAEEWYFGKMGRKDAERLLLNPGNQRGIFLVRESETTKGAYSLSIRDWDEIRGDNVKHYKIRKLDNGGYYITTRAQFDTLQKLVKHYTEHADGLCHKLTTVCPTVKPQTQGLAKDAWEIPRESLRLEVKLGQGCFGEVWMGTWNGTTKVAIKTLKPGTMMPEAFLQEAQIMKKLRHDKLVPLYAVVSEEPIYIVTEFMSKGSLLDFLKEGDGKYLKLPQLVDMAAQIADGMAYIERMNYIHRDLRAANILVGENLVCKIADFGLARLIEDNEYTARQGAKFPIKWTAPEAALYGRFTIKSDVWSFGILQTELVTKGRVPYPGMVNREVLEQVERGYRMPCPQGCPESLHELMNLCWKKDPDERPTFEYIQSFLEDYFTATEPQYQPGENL

[4] = biological target: Tyrosine-protein kinase Fgr (Homo sapiens, UniProt P09769); assay: Binding affinity to FGR (unknown origin) assessed as dissociation constant
[5] = biological target: Proto-oncogene tyrosine-protein kinase Src (Homo sapiens, UniProt P12931); assay: Binding affinity to c-Src (unknown origin) assessed as inhibition constant
Sequence of Proto-oncogene tyrosine-protein kinase Src (P12931 whole entry, looked up): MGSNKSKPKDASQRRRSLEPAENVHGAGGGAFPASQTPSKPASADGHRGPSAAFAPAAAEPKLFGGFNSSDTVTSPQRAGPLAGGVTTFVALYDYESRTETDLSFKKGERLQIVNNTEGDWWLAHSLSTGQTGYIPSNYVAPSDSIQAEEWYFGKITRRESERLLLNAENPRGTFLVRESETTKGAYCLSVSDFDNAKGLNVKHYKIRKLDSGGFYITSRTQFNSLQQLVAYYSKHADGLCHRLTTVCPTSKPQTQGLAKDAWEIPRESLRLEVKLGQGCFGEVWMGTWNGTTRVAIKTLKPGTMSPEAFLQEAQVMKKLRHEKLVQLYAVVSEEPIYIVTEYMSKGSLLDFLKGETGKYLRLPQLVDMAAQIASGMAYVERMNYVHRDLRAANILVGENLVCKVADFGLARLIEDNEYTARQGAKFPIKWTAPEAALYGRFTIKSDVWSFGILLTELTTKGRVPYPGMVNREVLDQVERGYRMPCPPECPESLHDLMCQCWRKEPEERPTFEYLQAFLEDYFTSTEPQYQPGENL

MV4-11 = assay: Antitumor activity against human MV4-11 cells xenografted in athymic nu/nu mouse model assessed as tumor growth inhibition at 50 mg/kg administered a day measured after 14 days relative to control; type: functional; conditions: MV4-11, 336 h, time 14 day, read-out: TGI
[6] = Inhibition of 1R (unknown origin); parameters: species or system Homo sapiens
[7] = biological target: T1, Epidermal growth factor receptor (Homo sapiens, UniProt P00533); assay: Inhibition of wild type EGFR (unknown origin)
T1 sequence (P00533 whole entry): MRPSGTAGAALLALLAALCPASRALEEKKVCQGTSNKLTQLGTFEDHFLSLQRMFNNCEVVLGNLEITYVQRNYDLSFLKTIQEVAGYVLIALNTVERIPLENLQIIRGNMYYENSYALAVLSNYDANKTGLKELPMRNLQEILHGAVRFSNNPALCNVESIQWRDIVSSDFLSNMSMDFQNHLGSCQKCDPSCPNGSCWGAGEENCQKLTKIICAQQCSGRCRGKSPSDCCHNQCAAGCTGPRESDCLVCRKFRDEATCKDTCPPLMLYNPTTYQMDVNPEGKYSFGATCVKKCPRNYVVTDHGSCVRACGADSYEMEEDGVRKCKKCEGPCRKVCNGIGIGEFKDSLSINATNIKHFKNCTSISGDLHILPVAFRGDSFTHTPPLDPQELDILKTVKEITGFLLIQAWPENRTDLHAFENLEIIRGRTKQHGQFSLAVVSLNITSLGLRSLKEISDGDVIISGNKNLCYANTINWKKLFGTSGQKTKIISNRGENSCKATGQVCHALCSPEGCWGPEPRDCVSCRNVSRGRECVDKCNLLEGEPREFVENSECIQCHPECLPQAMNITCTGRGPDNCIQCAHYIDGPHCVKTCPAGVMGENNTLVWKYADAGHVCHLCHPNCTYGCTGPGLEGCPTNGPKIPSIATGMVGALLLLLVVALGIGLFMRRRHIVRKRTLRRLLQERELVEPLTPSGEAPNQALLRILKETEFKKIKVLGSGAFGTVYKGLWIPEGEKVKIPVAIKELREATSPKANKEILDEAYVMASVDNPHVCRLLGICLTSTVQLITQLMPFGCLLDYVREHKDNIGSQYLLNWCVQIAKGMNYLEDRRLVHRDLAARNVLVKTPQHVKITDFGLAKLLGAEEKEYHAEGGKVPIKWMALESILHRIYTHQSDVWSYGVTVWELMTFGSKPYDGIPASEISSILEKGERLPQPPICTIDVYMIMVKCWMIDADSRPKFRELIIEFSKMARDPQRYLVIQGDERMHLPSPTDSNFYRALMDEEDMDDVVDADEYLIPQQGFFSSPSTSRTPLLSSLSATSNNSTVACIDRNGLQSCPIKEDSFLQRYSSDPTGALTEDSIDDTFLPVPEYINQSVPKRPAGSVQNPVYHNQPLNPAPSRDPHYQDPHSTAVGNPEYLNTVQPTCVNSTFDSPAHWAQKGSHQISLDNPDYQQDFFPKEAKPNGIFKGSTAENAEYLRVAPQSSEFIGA

[8] = biological target: Epidermal growth factor receptor (Homo sapiens, UniProt P00533, C797S/T790M); assay: Inhibition of EGFR T790M/C797S mutant (unknown origin)
NCI-H1581 [9] = assay: animal or person; conditions: Mus musculus, BALB/c, NCI-H1581, 480 h, read-out: TGI
Description: Antitumor activity against human NCI-H1581 cells xenografted in BALB/c mouse assessed as tumor growth inhibition at 10 mg/kg, ip administered once daily for 20 days measured after 32 days by LC_MS/MS analysis relative to control

NCI-H1581 [10] = assay: animal or person; conditions: Mus musculus, BALB/c, NCI-H1581, 480 h, read-out: TGI; remark: listed apart in the source
Description: Antitumor activity against human NCI-H1581 cells xenografted in BALB/c mouse assessed as tumor growth inhibition at 50 mg/kg, ip administered once daily for 20 days measured after 32 days by LC_MS/MS analysis relative to control

[11] = AUC (0 to t) in CD1 mouse at 3 mg/kg, ip by LC-MS/MS analysis; type: ADME, organism-based; parameters: dose 3 mg/kg, route ip; conditions: in vivo
[12] = Half life in CD1 mouse at 3 mg/kg, ip by LC-MS/MS analysis; type: ADME, organism-based; conditions: in vivo
[13] = AUC (0 to t) in CD1 mouse at 1 mg/kg, iv by LC-MS/MS analysis; type: ADME, organism-based; parameters: dose 1 mg/kg, route iv; conditions: in vivo
BaF3 = assay: cells; conditions: Mus musculus, BaF3, 72 h
Description: Antiproliferative activity against mouse BaF3/TEL-FGFR1 cells measured after 72 hrs by CCK8 assay

[14] = Half life in CD1 mouse at 1 mg/kg, iv by LC-MS/MS analysis; type: ADME, organism-based; conditions: in vivo
[15] = biological target: Cytoplasmic tyrosine-protein kinase BMX (Homo sapiens, UniProt P51813); assay: Inhibition of BMX (unknown origin)
[16] = biological target: T1, Epidermal growth factor receptor; assay: Inhibition of human recombinant His-tagged EGFR expressed in baculovirus using poly-Gluo-Tyr as a substrate measured after 24 hrs by western blot analysis
[17] = biological target: T2, Fibroblast growth factor receptor 3 (Homo sapiens, UniProt P22607); assay: Inhibition of FGFR3 (unknown origin)
T2 sequence (P22607 whole entry): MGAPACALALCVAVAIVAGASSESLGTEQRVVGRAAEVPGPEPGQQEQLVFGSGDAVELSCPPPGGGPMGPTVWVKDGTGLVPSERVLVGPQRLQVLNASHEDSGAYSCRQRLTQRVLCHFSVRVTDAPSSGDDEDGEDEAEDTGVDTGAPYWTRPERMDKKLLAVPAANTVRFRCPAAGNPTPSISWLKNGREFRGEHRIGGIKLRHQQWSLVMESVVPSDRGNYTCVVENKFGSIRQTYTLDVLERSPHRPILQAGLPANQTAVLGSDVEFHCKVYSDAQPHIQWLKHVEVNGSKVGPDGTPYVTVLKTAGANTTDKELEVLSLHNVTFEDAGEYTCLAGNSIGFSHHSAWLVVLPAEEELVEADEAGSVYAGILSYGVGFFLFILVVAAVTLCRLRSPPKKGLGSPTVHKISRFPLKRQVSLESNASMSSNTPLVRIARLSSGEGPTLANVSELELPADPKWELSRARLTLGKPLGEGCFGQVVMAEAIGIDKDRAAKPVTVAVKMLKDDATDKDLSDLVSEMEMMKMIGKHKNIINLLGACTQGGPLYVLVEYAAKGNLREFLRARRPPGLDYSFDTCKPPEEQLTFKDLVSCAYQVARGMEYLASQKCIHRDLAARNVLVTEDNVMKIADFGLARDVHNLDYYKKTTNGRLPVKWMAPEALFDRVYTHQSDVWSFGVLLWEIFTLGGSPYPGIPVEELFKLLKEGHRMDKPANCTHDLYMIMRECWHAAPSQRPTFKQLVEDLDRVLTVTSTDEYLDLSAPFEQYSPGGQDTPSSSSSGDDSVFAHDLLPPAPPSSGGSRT

[18] = biological target: Vascular endothelial growth factor receptor 2 (Homo sapiens, UniProt P35968); assay: Inhibition of VEGFR2 (unknown origin)
[19] = biological target: Epidermal growth factor receptor (Homo sapiens, UniProt P00533, L858R); assay: Inhibition of EGFR L858R mutant (unknown origin)
[20] = biological target: Epidermal growth factor receptor (Homo sapiens, UniProt P00533, L858R/T790M); assay: Inhibition of EGFR L858R/T790M mutant (unknown origin)
Sequence of Epidermal growth factor receptor (Homo sapiens, UniProt P00533, L858R/T790M) (P00533 25-1210 T790M/L858R limits assumed): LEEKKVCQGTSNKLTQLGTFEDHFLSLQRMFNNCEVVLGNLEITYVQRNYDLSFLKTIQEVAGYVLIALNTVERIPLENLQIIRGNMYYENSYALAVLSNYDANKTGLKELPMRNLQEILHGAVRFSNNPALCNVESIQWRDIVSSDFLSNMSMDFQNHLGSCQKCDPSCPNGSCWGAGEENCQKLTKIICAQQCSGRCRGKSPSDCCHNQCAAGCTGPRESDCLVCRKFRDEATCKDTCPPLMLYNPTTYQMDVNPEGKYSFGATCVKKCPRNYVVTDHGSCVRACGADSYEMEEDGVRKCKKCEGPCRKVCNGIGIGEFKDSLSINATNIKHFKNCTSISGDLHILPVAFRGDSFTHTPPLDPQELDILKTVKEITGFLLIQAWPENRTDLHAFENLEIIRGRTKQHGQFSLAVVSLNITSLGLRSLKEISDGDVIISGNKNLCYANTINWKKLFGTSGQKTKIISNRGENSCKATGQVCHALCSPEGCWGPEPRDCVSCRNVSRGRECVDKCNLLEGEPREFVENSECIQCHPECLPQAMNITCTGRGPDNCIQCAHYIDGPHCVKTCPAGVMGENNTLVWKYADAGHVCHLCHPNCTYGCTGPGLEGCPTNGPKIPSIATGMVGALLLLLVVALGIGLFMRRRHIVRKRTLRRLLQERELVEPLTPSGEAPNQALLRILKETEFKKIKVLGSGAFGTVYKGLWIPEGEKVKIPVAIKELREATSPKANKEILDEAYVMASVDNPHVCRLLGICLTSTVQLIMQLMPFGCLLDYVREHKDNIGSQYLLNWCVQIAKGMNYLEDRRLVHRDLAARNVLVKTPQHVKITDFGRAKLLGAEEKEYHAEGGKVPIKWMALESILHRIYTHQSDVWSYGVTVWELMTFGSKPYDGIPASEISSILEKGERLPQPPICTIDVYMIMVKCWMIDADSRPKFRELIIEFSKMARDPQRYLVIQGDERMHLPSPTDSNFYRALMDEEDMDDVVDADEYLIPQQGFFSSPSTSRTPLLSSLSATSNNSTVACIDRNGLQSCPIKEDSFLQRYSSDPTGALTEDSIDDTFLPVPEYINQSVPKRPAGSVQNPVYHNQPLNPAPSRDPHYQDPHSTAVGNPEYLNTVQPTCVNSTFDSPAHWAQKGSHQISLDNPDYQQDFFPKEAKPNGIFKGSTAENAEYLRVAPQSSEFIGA

NCI-H1581 [21] = assay: Antitumor activity against human NCI-H1581 cells xenografted in athymic nu/nu mouse model assessed as tumor growth inhibition at 25 mg/kg measured after 14 days relative to control; conditions: NCI-H1581, 336 h, read-out: TGI
animal or person = type: functional; conditions: Homo sapiens, HCC, 336 h, time 14 day, read-out: TGI
Description: Antitumor activity against human HCC cells xenografted in athymic nu/nu mouse model assessed as tumor growth inhibition at 50 mg/kg measured after 14 days relative to control

[22] = biological target: Fibroblast growth factor receptor 1 (Homo sapiens, UniProt P11362); assay: Inhibition of human recombinant FGFR1
[23] = biological target: Fibroblast growth factor receptor 4 (Homo sapiens, UniProt P22455); assay: Inhibition of human recombinant FGFR4
[24] = biological target: T2, Fibroblast growth factor receptor 3; assay: Inhibition of human recombinant FGFR3
[25] = biological target: Fibroblast growth factor receptor 2 (Homo sapiens, UniProt P21802); assay: Inhibition of human recombinant FGFR2
[26] = biological target: T3, Phosphatidylinositol 4,5-bisphosphate 3-kinase catalytic subunit delta isoform (Homo sapiens, UniProt O00329); assay: Inhibition of PI3Kdelta (unknown origin) at 1 uM
T3 sequence (O00329 whole entry): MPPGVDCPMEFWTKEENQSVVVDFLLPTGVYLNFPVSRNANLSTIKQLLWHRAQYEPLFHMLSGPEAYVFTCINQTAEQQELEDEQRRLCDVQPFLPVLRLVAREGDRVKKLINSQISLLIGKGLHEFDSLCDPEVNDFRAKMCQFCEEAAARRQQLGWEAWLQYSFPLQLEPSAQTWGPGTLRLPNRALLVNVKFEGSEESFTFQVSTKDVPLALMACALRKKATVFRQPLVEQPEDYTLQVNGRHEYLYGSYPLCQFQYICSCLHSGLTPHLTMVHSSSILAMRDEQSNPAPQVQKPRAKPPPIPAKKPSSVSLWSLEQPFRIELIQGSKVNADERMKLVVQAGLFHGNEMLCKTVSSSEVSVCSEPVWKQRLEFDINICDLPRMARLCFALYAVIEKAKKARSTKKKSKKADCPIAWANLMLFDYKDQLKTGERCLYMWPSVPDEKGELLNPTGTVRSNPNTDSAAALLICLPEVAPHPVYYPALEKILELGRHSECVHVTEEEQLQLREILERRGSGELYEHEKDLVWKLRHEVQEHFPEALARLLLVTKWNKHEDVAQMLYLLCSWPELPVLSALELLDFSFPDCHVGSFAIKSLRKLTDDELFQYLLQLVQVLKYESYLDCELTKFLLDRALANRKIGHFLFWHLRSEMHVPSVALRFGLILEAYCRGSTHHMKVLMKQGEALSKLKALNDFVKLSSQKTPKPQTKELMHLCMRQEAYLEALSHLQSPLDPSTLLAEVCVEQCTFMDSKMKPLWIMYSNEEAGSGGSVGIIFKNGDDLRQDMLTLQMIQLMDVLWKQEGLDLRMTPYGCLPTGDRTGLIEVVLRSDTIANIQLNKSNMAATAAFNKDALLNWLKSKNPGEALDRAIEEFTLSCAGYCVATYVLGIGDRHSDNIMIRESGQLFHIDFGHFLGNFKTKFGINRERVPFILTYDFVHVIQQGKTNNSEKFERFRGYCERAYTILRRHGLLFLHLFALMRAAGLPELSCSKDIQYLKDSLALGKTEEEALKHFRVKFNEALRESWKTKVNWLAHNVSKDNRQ

Compound `Nc1ncnc2c1c(-c1cccc(OCc3ccccc3)c1)cn2[C@H]1C[C@@H](CN2CCC2)C1` has an IC50 [1] of 2300 nM.

For `Nc1ncnc2c1c(-c1ccc(Cl)cc1)nn2-c1cccc(-c2cnnn2Cc2cccc(-c3ccccc3)c2)c1`, the Kd [2] was 86 nM and 160 nM, the Kd [3] was 720 nM and the Kd [4] was 240 nM. For the same compound, the Ki [5] was 44 nM.

Compound `CN(C)CC(=O)N1CCC[C@@H](n2nc(-c3ccc(Oc4ccccc4)cc3)c3c(N)ncnc32)C1` has an inhibition in vivo at 50 mg/kg (MV4-11) of 88%.

Compound `Nc1ncnc2c1c(-c1cccc(OCc3ccccc3)c1)cn2[C@H]1C[C@H](CN2CCCC2)C1` has an IC50 [6] of 2800 nM.

`C=CC(=O)N1CCC[C@@H](n2nc(-c3cn(C)c4ccccc34)c3c(N)ncnc32)C1` gave an IC50 [7] of 58 nM and an IC50 [8] of 1.9 nM.

`Cc1ccc2oc(-c3c4c(N)n[nH]c(=O)c4nn3-c3ccc(NC(=O)/C=C/CN(C)C)cc3)c(C)c2c1` gave an inhibition in vivo at 10 mg/kg (NCI-H1581 [9]) of 74.4%, an inhibition in vivo at 50 mg/kg (NCI-H1581 [10]) of 91.6% and an AUCt [11] of 704 ng·h/mL. The half-life [12] was 3.7 h, the AUCt [13] was 281 ng·h/mL and the IC50 (BaF3) was less than 0.3 nM. For the same compound, the half-life [14] was 1.39 h.

With `N#CN1CCC[C@@H](n2nc(-c3ccc(Oc4ccc(F)cc4F)cc3)c(C(N)=O)c2N)C1` the IC50 [15] was 0.9 nM.

For `COc1cccc(-c2cn(-c3ccc(CCN4CCC(O)CC4)cc3)c3ncnc(N)c23)c1`, the IC50 [16] was 150 nM.

Work on `C#CCO[C@@H]1[C@H](C)[C@@H](COC(=O)c2ccc(S(=O)(=O)F)cc2)O[C@H]1n1nc(-c2ccc(C)cc2)c2c(N)ncnc21` yielded an IC50 [17] of 1.6 nM and an IC50 [18] of 475 nM.

In the case of `N#C/C(=C/C(=O)N1CCC[C@@H](n2nc(-c3cnc4[nH]ccc4c3)c3c(N)ncnc32)C1)C1CC1`, the IC50 [19] is reported as 2 nM, the IC50 [7] is reported as 13 nM and the IC50 [20] is reported as 2.7 nM.

In the case of `C=CC(=O)N1CC[C@H](c2nc(-c3cc4cc(Br)cc(OC)c4s3)c3c(N)nccn23)C1`, the inhibition in vivo at 25 mg/kg (NCI-H1581 [21]) is reported as 84.6%, the inhibition in vivo at 50 mg/kg (animal or person) is reported as 97.8% and the IC50 [22] is reported as less than 0.3 nM. The IC50 [23] was 0.5 nM, the IC50 [24] was less than 0.3 nM and the IC50 [25] was 1.1 nM.

In the case of `Nc1ncnc2c1c(-c1cc(O)c(Br)c(F)c1)nn2C1CCc2ccccc2C1` (stereo not given), the IC50 [26] is reported as 0.27 nM.
